Source: ChEMBL document CHEMBL4184204, “Fusarithioamide B, a new benzamide derivative from the endophytic fungus Fusarium chlamydosporium with potent cytotoxic and antimicrobial activities” (Bioorg Med Chem, 2018)
Converted amounts (≈) assume the structure as drawn.

Tests used:
[1] = system: Staphylococcus aureus; assay: Antibacterial activity against Staphylococcus aureus AUMC B-54 assessed as diameter of inhibition zone after 24 hrs by agar disc diffusion method; assay type: functional
[2] = system: Bacillus cereus; assay: Antibacterial activity against Bacillus cereus AUMC B-5 assessed as diameter of inhibition zone after 24 hrs by agar disc diffusion method; assay type: functional
[3] = system: Escherichia coli; assay: Antibacterial activity against Escherichia coli AUMC B-53 assessed as diameter of inhibition zone after 24 hrs by agar disc diffusion method; assay type: functional
[4] = system: Pseudomonas aeruginosa; assay: Antibacterial activity against Pseudomonas aeruginosa AUMC B-73 assessed as diameter of inhibition zone after 24 hrs by agar disc diffusion method; assay type: functional
[5] = system: Serratia marcescens; assay: Antibacterial activity against Serratia marcescens AUMC B-55 assessed as diameter of inhibition zone after 24 hrs by agar disc diffusion method; assay type: functional
[6] = system: Candida albicans; assay: Antifungal activity against Candida albicans AUMC 418 assessed as diameter of inhibition zone after 48 hrs by agar disc diffusion method; assay type: functional
[7] = system: Geotrichum candidum; assay: Antifungal activity against Geotrichum candidum AUMC 226 assessed as diameter of inhibition zone after 48 hrs by agar disc diffusion method; assay type: functional
[8] = system: Trichophyton rubrum; assay: Antifungal activity against Trichophyton rubrum AUMC 1804 assessed as diameter of inhibition zone after 48 hrs by agar disc diffusion method; assay type: functional
[9] = system: Escherichia coli; assay: Antibacterial activity against Escherichia coli AUMC B-53 by microdilution method; assay type: functional
[10] = system: Pseudomonas aeruginosa; assay: Antibacterial activity against Pseudomonas aeruginosa AUMC B-73 by microdilution method; assay type: functional
[11] = system: Staphylococcus aureus; assay: Antibacterial activity against Staphylococcus aureus AUMC B-54 by microdilution method; assay type: functional
[12] = system: Bacillus cereus; assay: Antibacterial activity against Bacillus cereus AUMC B-5 by microdilution method; assay type: functional
[13] = system: Serratia marcescens; assay: Antibacterial activity against Serratia marcescens AUMC B-55 by microdilution method; assay type: functional
[14] = system: Candida albicans; assay: Antifungal activity against Candida albicans AUMC 418 by microdilution method; assay type: functional
[15] = system: Geotrichum candidum; assay: Antifungal activity against Geotrichum candidum AUMC 226 by microdilution method; assay type: functional
[16] = system: Trichophyton rubrum; assay: Antifungal activity against Trichophyton rubrum AUMC 1804 by microdilution method; assay type: functional
[17] = system: SK-MEL; assay: Cytotoxicity against human SK-MEL cells after 48 hrs by neutral red dye based assay; assay type: functional, cell-based
[18] = system: KB; assay: Cytotoxicity against human KB cells after 48 hrs by neutral red dye based assay; assay type: functional, cell-based
[19] = system: BT-549; assay: Cytotoxicity against human BT549 cells after 48 hrs by neutral red dye based assay; assay type: functional, cell-based; details: BT-549, 48 h
[20] = system: SK-OV-3; assay: Cytotoxicity against human SKOV3 cells after 48 hrs by neutral red dye based assay; assay type: functional, cell-based; details: SK-OV-3, 48 h
[21] = system: MCF7; assay: Cytotoxicity against human MCF7 cells after 48 hrs by neutral red dye based assay; assay type: functional, cell-based; details: MCF7, 48 h
[22] = system: HCT-116; assay: Cytotoxicity against human HCT116 cells after 48 hrs by neutral red dye based assay; assay type: functional, cell-based; details: HCT-116, 48 h
[23] = system: Staphylococcus aureus; assay: Antibacterial activity against Staphylococcus aureus AUMC B-54 assessed as diameter of inhibition zone at 10 ug/disc after 24 hrs by agar disc diffusion method; details: AUMC B-54, 24 h, read-out: DIZ
[24] = system: Bacillus cereus; assay: Antibacterial activity against Bacillus cereus AUMC B-5 assessed as diameter of inhibition zone at 10 ug/disc after 24 hrs by agar disc diffusion method; assay type: functional; details: AUMC B-5, 24 h, read-out: DIZ
[25] = system: Escherichia coli; assay: Antibacterial activity against Escherichia coli AUMC B-53 assessed as diameter of inhibition zone at 10 ug/disc after 24 hrs by agar disc diffusion method; details: AUMC B-53, 24 h, read-out: DIZ
[26] = system: Pseudomonas aeruginosa; assay: Antibacterial activity against Pseudomonas aeruginosa AUMC B-73 assessed as diameter of inhibition zone at 10 ug/disc after 24 hrs by agar disc diffusion method; details: AUMC B-73, 24 h, read-out: DIZ
[27] = system: Serratia marcescens; assay: Antibacterial activity against Serratia marcescens AUMC B-55 assessed as diameter of inhibition zone at 10 ug/disc after 24 hrs by agar disc diffusion method; assay type: functional; details: AUMC B-55, 24 h, read-out: DIZ
[28] = system: Candida albicans; assay: Antifungal activity against Candida albicans AUMC 418 assessed as diameter of inhibition zone at 5 ug/disc after 48 hrs by agar disc diffusion method; assay type: functional; details: AUMC 418, 48 h, read-out: DIZ
[29] = system: Geotrichum candidum; assay: Antifungal activity against Geotrichum candidum AUMC 226 assessed as diameter of inhibition zone at 5 ug/disc after 48 hrs by agar disc diffusion method; assay type: functional; details: AUMC 226, 48 h, read-out: DIZ
[30] = system: Trichophyton rubrum; assay: Antifungal activity against Trichophyton rubrum AUMC 1804 assessed as diameter of inhibition zone at 5 ug/disc after 48 hrs by agar disc diffusion method; assay type: functional; details: AUMC 1804, 48 h, read-out: DIZ

| SMILES | MIC [12] [mg/L] | MIC [13] [mg/L] | MIC [14] [mg/L] | MIC [15] [mg/L] | MIC [16] [mg/L] | IC50 [17] [µM] | IC50 [18] [µM] | IC50 [19] [µM] | IC50 [20] [µM] | IC50 [22] [µM] | other results |
| --- | --- | --- | --- | --- | --- | --- | --- | --- | --- | --- | --- |
| CC1NC(=O)C(C)(CC(=O)O)NC(CN)OC(CCS)NC(=O)c2ccccc2NC1=O (stereo not given) | 2.5 (≈ 5.35 µM) | 92.1 (≈ 197 µM) | 1.9 (≈ 4.06 µM) | 6.9 (≈ 14.8 µM) | 5.2 (≈ 11.1 µM) | 11.2 | 6.9 | 0.09 | 1.23 | 0.59 | diameter of the inhibition zone (DIZ) [1]: 17.4 mm; diameter of the inhibition zone (DIZ) [2]: 23 mm; diameter of the inhibition zone (DIZ) [3]: 25.1 mm; diameter of the inhibition zone (DIZ) [4]: 7.2 mm; diameter of the inhibition zone (DIZ) [5]: 4.5 mm; diameter of the inhibition zone (DIZ) [6]: 14.5 mm; diameter of the inhibition zone (DIZ) [7]: 28.9 mm; diameter of the inhibition zone (DIZ) [8]: 40.3 mm; MIC [9]: 3.7 mg/L (≈ 7.91 µM); MIC [10]: 68.4 mg/L (≈ 146 µM); MIC [11]: 3.1 mg/L (≈ 6.63 µM); IC50 [21]: 0.21 µM |
| O=C(O)c1cn(C2CC2)c2cc(N3CCNCC3)c(F)cc2c1=O [CIPROFLOXACIN] | 2.9 (≈ 8.75 µM) | 9.1 (≈ 27.5 µM) | – | – | – | – | – | – | – | – | zone of inhibition at 10 µg/disc [23]: 15.3 mm; zone of inhibition at 10 µg/disc [24]: 21.2 mm; zone of inhibition at 10 µg/disc [25]: 25.6 mm; zone of inhibition at 10 µg/disc [26]: 14.8 mm; zone of inhibition at 10 µg/disc [27]: 30.1 mm |
| Clc1ccccc1C(c1ccccc1)(c1ccccc1)n1ccnc1 [CLOTRIMAZOLE] | – | – | 2.8 (≈ 8.12 µM) | 4.9 (≈ 14.2 µM) | 8.1 (≈ 23.5 µM) | – | – | – | – | – | zone of inhibition at 5 µg/disc [28]: 17.9 mm; zone of inhibition at 5 µg/disc [29]: 20.1 mm; zone of inhibition at 5 µg/disc [30]: 15.5 mm |
| COc1cccc2c1C(=O)c1c(O)c3c(c(O)c1C2=O)C[C@@](O)(C(=O)CO)C[C@@H]3O[C@H]1C[C@H](N)[C@H](O)[C@H](C)O1 [DOXORUBICIN] | – | – | – | – | – | 0.159 | 0.024 | 0.045 | 0.321 | 0.24 | – |
